From patent US12257243B2, “5-hydroxy-7-oxabicyclo[2.2.1]heptane-2-carboxamide derivatives for inducing chondrogenesis for treating joint damage” (NOVARTIS AG, priority 2018, dated 2025)
Where two headings read alike, the source gives them in different places.

Tested on: ALP in normal human articular chondrocytes (NHACs)
Test: Alkaline Phosphatase (ALP) activity assay (staining and quantitation) in NHACs, prevention of chondrocyte hypertrophy
Assay type: cell-based
Settings: human IL-1 beta 10 ng/mL, 12 days; for IC50: Fast Blue RR staining, high content imaging, read-out: ALP in NHAC IC50; for Emax / ALP in NHAC (% Efficacy): value in parentheses; for Emax: read-out: ALP in NHAC (% Efficacy)
Outline: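 Hypertrophy readout: ALP staining (Fast Blue RR with naphthol AS-MX phosphate) plus Hoechst, imaged at 561 nm and/or quantified by high-content multiwavelength cell scoring. Before staining, NHACs (7,500/well, DMEM/10% FBS) were exposed to compound for 5 h, then cultured with 10 ng/mL IL-1β for 12 days at 37 °C.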

SMILES | IC50 (Chondrocyte, 288 h) [µM] | Emax (Chondrocyte, 288 h) [%] | IC50 [µM] | ALP in NHAC (% Efficacy) [%]
O=C(Nc1cccc(C(F)(F)F)c1)[C@@H]1[C@@H](c2cccc(C(F)(F)F)c2)[C@H]2O[C@@H]1C[C@@H]2O (racemic) [Example 10, rac-(1R,2R,3S,4R,5S)-5-hydroxy-N,3-bis(3-(trifluoromethylphenyl)-7-oxabicyclo[2.2.1]heptane-2-carboxamide] | 12 | 108 | – | –
CC(C)n1cc([C@H]2[C@H]3O[C@H](C[C@@H]3O)[C@@H]2C(=O)Nc2cc(C(F)(F)F)ccc2C#N)c(C(F)(F)F)n1 (racemic) [Example 84, rac-(1R,2R,3S,4R,5S)—N-(2-cyano-5-(trifluoromethyl)phenyl)-5-hydroxy-3-(1-isopropyl-3-(trifluoromethyl)-1H-pyrazol-4-yl)-7-oxabicyclo[2.2.1]heptane-2-carboxamide] | 0.29 | 86 | – | –
Cn1cc([C@H]2[C@H]3O[C@H](C[C@@H]3O)[C@@H]2C(=O)Nc2cc(Cl)cc(C(F)(F)F)c2)c(C(F)(F)F)n1 (racemic) [Example 34, rac-(1R,2R,3S,4R,5)-N-(3-chloro-5-(trifluoromethyl)phenyl)-5-hydroxy-3-(1-methyl-3-(trifluoromethyl)-1H-pyrazol-4-yl)-7-oxabicyclo[2.2.1]heptane-2-carboxamide] | 6.5 | 101 | – | –
N#Cc1ccc(C(F)(F)F)cc1NC(=O)[C@@H]1[C@@H](c2cccc(C(F)(F)F)c2)[C@H]2O[C@@H]1C[C@@H]2O (racemic) [Example 48, rac-(1R,2R,3S,4R,5S)—N-(2-cyano-5-(trifluoromethyl)phenyl)-5-hydroxy-3-(3-(trifluoromethyl)phenyl)-7-oxabicyclo[2.2.1]heptane-2-carboxamide] | 0.088 | 92 | – | –
COc1cc([C@H]2[C@H]3O[C@H](C[C@@H]3O)[C@@H]2C(=O)Nc2cc(C(F)(F)F)ccn2)ccn1 (racemic) [Example 77, rac-(1R,2R,3S,4R,5)-5-hydroxy-3-(2-methoxypyridin-4-yl)-N-(4-(trifluoromethyl)pyridin-2-yl)-7-oxabicyclo[2.2.1]heptane-2-carboxamide] | 15 | 76 | – | –
COc1cc([C@H]2[C@H]3O[C@H](C[C@@H]3O)[C@@H]2C(=O)Nc2cccc(C(F)(F)F)c2)ccn1 (racemic) [Example 70, rac-(1R,2R,3S,4R,5S)-5-hydroxy-3-(2-methoxypyridin-4-yl)-N-(3-(trifluoromethyl)phenyl)-7-oxabicyclo[2.2.1]heptane-2-carboxamide] | > 30 | 13 | – | –
Cn1cc([C@H]2[C@H]3O[C@H](C[C@@H]3O)[C@@H]2C(=O)Nc2cccc(C(F)(F)F)c2)c(C(F)(F)F)n1 (single isomer, unassigned) [Example 32a, (1R,2R,3S,4R,5S)-5-hydroxy-3-(1-methyl-3-(trifluoromethyl)-1H-pyrazol-4-yl)-N-(3-(trifluoromethyl)phenyl)-7-oxabicyclo[2.2.1]heptane-2-carboxamide or (1S,2S,3R,4S,5R)-5-hydroxy-3-(1-methyl-3-(trifluoromethyl)-1H-pyrazol-4-yl)-N-(3-(trifluoromethyl)phenyl)-7-oxabicyclo[2.2.1]heptane-2-carboxamide] | – | – | 6.6 | 87
O=C(Nc1ccc(C(F)(F)F)c(Cl)n1)[C@@H]1[C@@H](c2cccc(C(F)(F)F)c2)[C@H]2O[C@@H]1C[C@@H]2O (single isomer, unassigned) [Example 25b, (1R,2R,3S,4R,5S)—N-(6-chloro-5-(trifluoromethyl)pyridin-2-yl)-5-hydroxy-3-(3-(trifluoromethyl)phenyl)-7-oxabicyclo[2.2.1]heptane-2-carboxamide or (1S,2S,3R,4S,5R)—N-(6-chloro-5-(trifluoromethylpyridin-2-yl)-5-hydroxy-3-(3-(trifluoromethyl)phenyl)-7-oxabicyclo[2.2.1]heptane-2-carboxamide] | – | – | 0.84 | 99
CCOc1ccc(NC(=O)[C@@H]2[C@@H](c3cn(C)nc3C(F)(F)F)[C@H]3O[C@@H]2C[C@@H]3O)cc1C(F)(F)F (racemic) [Example 44, rac-(1R,2R,3S,4R,5S)—N-(4-ethoxy-3-(trifluormethyl)phenyl)-5-hydroxy-3-(1-methyl-3-(trifluoromethyl)-1H-pyrazol-4-yl)-7-oxabicyclo[2.2.1]heptane-2-carboxamide] | 14 | 89 | – | –
O=C(Nc1cccc(C(F)(F)F)c1F)[C@@H]1[C@@H](c2cccc(C(F)(F)F)c2)[C@H]2O[C@@H]1C[C@@H]2O (racemic) [Example 15, rac-(1R,2R,3S,4R,5S)—N-(2-fluoro-3-(trifluoromethyl)phenyl)-5-hydroxy-3-(3-(trifluoromethyl)phenyl)-7-oxabicyclo[2.2.1]heptane-2-carboxamide] | 7 | 105 | – | –
Cc1ccc(NC(=O)[C@@H]2[C@@H](c3cc(C(F)(F)F)nn3C)[C@H]3O[C@@H]2C[C@@H]3O)cc1C(F)(F)F (racemic) [Example 60, rac-(1R,2R,3S,4R,5S)-5-hydroxy-3-(1-methyl-3-(trifluoromethyl)-1H-pyrazol-5-yl)-N-(4-methyl-3-(trifluoromethyl)phenyl)-7-oxabicyclo[2.2.1]heptane-2-carboxamide] | 13 | 81 | – | –
Cn1cc([C@H]2[C@H]3O[C@H](C[C@@H]3O)[C@@H]2C(=O)Nc2cc(C(F)(F)F)cc(C(F)(F)F)c2)c(C(F)(F)F)n1 (racemic) [Example 50, rac-(1R,2R,3S,4R,5S)—N-(3,5-bis(trifluoromethyl)phenyl)-5-hydroxy-3-(1-methyl-3-(trifluoromethyl)-1H-pyrazol-4-yl)-7-oxabicyclo[2.2.1]heptane-2-carboxamide] | 2.3 | 101 | – | –
N#Cc1cc(NC(=O)[C@@H]2[C@@H](c3cccc(C(F)(F)F)c3)[C@H]3O[C@@H]2C[C@@H]3O)cc(C(F)(F)F)c1 (racemic) [Example 47, rac-(1R,2R,3S,4R,5S)—N-(3-cyano-5-(trifluoromethyl)phenyl)-5-hydroxy-3-(3-(trifluoromethyl)phenyl)-7-oxabicyclo[2.2.1]heptane-2-carboxamide] | 5.5 | 87 | – | –
COc1ccc(NC(=O)[C@@H]2[C@@H](c3cn(C)nc3C(F)(F)F)[C@H]3O[C@@H]2C[C@@H]3O)cc1C(F)(F)F (racemic) [Example 31, rac-(1R,2R,3S,4R,5S)-5-hydroxy-N-(4-methoxy-3-(trifluoromethyl)phenyl)-3-(1-methyl-3-(trifluoromethyl)-1H-pyrazol-4-yl)-7-oxabicyclo[2.2.1]heptane-2-carboxamide] | 3.1 | 102 | – | –
Cn1cc([C@H]2[C@H]3O[C@H](C[C@@H]3O)[C@@H]2C(=O)Nc2ccc(C(F)(F)F)c(Cl)c2)c(C(F)(F)F)n1 (racemic) [Example 58, rac-(1R,2R,3S,4R,5S)—N-(3-chloro-4-(trifluoromethyl)phenyl)-5-hydroxy-3-(1-methyl-3-(trifluoromethyl)-1H-pyrazol-4-yl)-7-oxabicyclo[2.2.1]heptane-2-carboxamide] | 10 | 102 | – | –
O=C(Nc1cc(C(F)(F)F)c(Cl)cn1)[C@@H]1[C@@H](c2cccc(C(F)(F)F)c2)[C@H]2O[C@@H]1C[C@@H]2O (racemic) [Example 6, rac-(1R,2R,3S,4R 5S)—N-(5-chloro-4-(trifluoromethyl)pyridin-2-yl)-5-hydroxy-3-(3-(trifluoromethyl)phenyl)-7-oxabicyclo[2.2.1]heptane-2-carboxamide] | > 30 | 38 | – | –
